Experimental data from BigSolDB 2.1.

Compound `O=P(O)(O)c1ccccc1` has a solubility (mole fraction) (in 1,4-dioxane, 288.15 K) of 0.186, a solubility (mole fraction) (in 1,4-dioxane, 293.15 K) of 0.208 and a solubility (mole fraction) (in 1,4-dioxane, 298.15 K) of 0.224. The solubility (mole fraction) (in 1,4-dioxane, 303.15 K) was 0.243, the solubility (mole fraction) (in 1,4-dioxane, 308.15 K) was 0.264 and the solubility (mole fraction) (in 1,4-dioxane, 313.15 K) was 0.286. The solubility (mole fraction) (in 1,4-dioxane, 318.15 K) was 0.307, the solubility (mole fraction) (in 1,4-dioxane, 323.15 K) was 0.336 and the solubility (mole fraction) (in 1,4-dioxane, 328.15 K) was 0.36. It also gave a solubility (mole fraction) (in 1,4-dioxane, 333.15 K) of 0.388, a solubility (mole fraction) (in 2-butoxyethanol, 278.15 K) of 0.199 and a solubility (mole fraction) (in 2-butoxyethanol, 283.15 K) of 0.208. The solubility (mole fraction) (in 2-butoxyethanol, 288.15 K) was 0.218, the solubility (mole fraction) (in 2-butoxyethanol, 293.15 K) was 0.231 and the solubility (mole fraction) (in 2-butoxyethanol, 298.15 K) was 0.243. For the same compound, the solubility (mole fraction) (in 2-butoxyethanol, 303.15 K) was 0.258, the solubility (mole fraction) (in 2-butoxyethanol, 308.15 K) was 0.27 and the solubility (mole fraction) (in 2-butoxyethanol, 313.15 K) was 0.283. For the same compound, the solubility (mole fraction) (in 2-butoxyethanol, 318.15 K) was 0.298, the solubility (mole fraction) (in 2-butoxyethanol, 323.15 K) was 0.317 and the solubility (mole fraction) (in 2-butoxyethanol, 328.15 K) was 0.334. For the same compound, the solubility (mole fraction) (in 2-butoxyethanol, 333.15 K) was 0.355, the solubility (mole fraction) (in 2-ethoxyethanol, 278.15 K) was 0.305 and the solubility (mole fraction) (in 2-ethoxyethanol, 283.15 K) was 0.317. The solubility (mole fraction) (in 2-ethoxyethanol, 288.15 K) was 0.327, the solubility (mole fraction) (in 2-ethoxyethanol, 293.15 K) was 0.339 and the solubility (mole fraction) (in 2-ethoxyethanol, 298.15 K) was 0.35. For the same compound, the solubility (mole fraction) (in 2-ethoxyethanol, 303.15 K) was 0.363, the solubility (mole fraction) (in 2-ethoxyethanol, 308.15 K) was 0.378 and the solubility (mole fraction) (in 2-ethoxyethanol, 313.15 K) was 0.391. It also gave a solubility (mole fraction) (in 2-ethoxyethanol, 318.15 K) of 0.404, a solubility (mole fraction) (in 2-ethoxyethanol, 323.15 K) of 0.42 and a solubility (mole fraction) (in 2-ethoxyethanol, 328.15 K) of 0.439. It also gave a solubility (mole fraction) (in 2-ethoxyethanol, 333.15 K) of 0.454, a solubility (mole fraction) (in 2-methoxyethanol, 278.15 K) of 0.342 and a solubility (mole fraction) (in 2-methoxyethanol, 283.15 K) of 0.348. For the same compound, the solubility (mole fraction) (in 2-methoxyethanol, 288.15 K) was 0.359, the solubility (mole fraction) (in 2-methoxyethanol, 293.15 K) was 0.371 and the solubility (mole fraction) (in 2-methoxyethanol, 298.15 K) was 0.383. It also gave a solubility (mole fraction) (in 2-methoxyethanol, 303.15 K) of 0.397, a solubility (mole fraction) (in 2-methoxyethanol, 308.15 K) of 0.408 and a solubility (mole fraction) (in 2-methoxyethanol, 313.15 K) of 0.425. It also gave a solubility (mole fraction) (in 2-methoxyethanol, 318.15 K) of 0.439, a solubility (mole fraction) (in 2-methoxyethanol, 323.15 K) of 0.453 and a solubility (mole fraction) (in 2-methoxyethanol, 328.15 K) of 0.468. For the same compound, the solubility (mole fraction) (in 2-methoxyethanol, 333.15 K) was 0.483, the solubility (mole fraction) (in 2-propoxyethanol, 278.15 K) was 0.244 and the solubility (mole fraction) (in 2-propoxyethanol, 283.15 K) was 0.257. The solubility (mole fraction) (in 2-propoxyethanol, 288.15 K) was 0.266, the solubility (mole fraction) (in 2-propoxyethanol, 293.15 K) was 0.28 and the solubility (mole fraction) (in 2-propoxyethanol, 298.15 K) was 0.295. The solubility (mole fraction) (in 2-propoxyethanol, 303.15 K) was 0.307, the solubility (mole fraction) (in 2-propoxyethanol, 308.15 K) was 0.318 and the solubility (mole fraction) (in 2-propoxyethanol, 313.15 K) was 0.336. For the same compound, the solubility (mole fraction) (in 2-propoxyethanol, 318.15 K) was 0.349, the solubility (mole fraction) (in 2-propoxyethanol, 323.15 K) was 0.368 and the solubility (mole fraction) (in 2-propoxyethanol, 328.15 K) was 0.382. The solubility (mole fraction) (in 2-propoxyethanol, 333.15 K) was 0.401, the solubility (mole fraction) (in acetone, 273.15 K) was 0.0872 and the solubility (mole fraction) (in acetone, 278.15 K) was 0.101. It also gave a solubility (mole fraction) (in acetone, 283.15 K) of 0.113, a solubility (mole fraction) (in acetone, 288.15 K) of 0.13 and a solubility (mole fraction) (in acetone, 293.15 K) of 0.144. For the same compound, the solubility (mole fraction) (in acetone, 298.15 K) was 0.162, the solubility (mole fraction) (in acetone, 303.15 K) was 0.178 and the solubility (mole fraction) (in acetone, 308.15 K) was 0.201. For the same compound, the solubility (mole fraction) (in acetone, 313.15 K) was 0.223, the solubility (mole fraction) (in acetone, 318.15 K) was 0.249 and the solubility (mole fraction) (in ethanol, 278.15 K) was 0.288. The solubility (mole fraction) (in ethanol, 283.15 K) was 0.295, the solubility (mole fraction) (in ethanol, 288.15 K) was 0.305 and the solubility (mole fraction) (in ethanol, 293.15 K) was 0.314. For the same compound, the solubility (mole fraction) (in ethanol, 298.15 K) was 0.326, the solubility (mole fraction) (in ethanol, 303.15 K) was 0.334 and the solubility (mole fraction) (in ethanol, 308.15 K) was 0.347. For the same compound, the solubility (mole fraction) (in ethanol, 313.15 K) was 0.357, the solubility (mole fraction) (in ethanol, 318.15 K) was 0.371 and the solubility (mole fraction) (in ethanol, 323.15 K) was 0.383. The solubility (mole fraction) (in ethanol, 328.15 K) was 0.394, the solubility (mole fraction) (in ethanol, 333.15 K) was 0.407 and the solubility (mole fraction) (in isopropanol, 278.15 K) was 0.24. For the same compound, the solubility (mole fraction) (in isopropanol, 283.15 K) was 0.251, the solubility (mole fraction) (in isopropanol, 288.15 K) was 0.265 and the solubility (mole fraction) (in isopropanol, 293.15 K) was 0.277. It also gave a solubility (mole fraction) (in isopropanol, 298.15 K) of 0.291, a solubility (mole fraction) (in isopropanol, 303.15 K) of 0.307 and a solubility (mole fraction) (in isopropanol, 308.15 K) of 0.317. For the same compound, the solubility (mole fraction) (in isopropanol, 313.15 K) was 0.331, the solubility (mole fraction) (in isopropanol, 318.15 K) was 0.346 and the solubility (mole fraction) (in isopropanol, 323.15 K) was 0.361. It also gave a solubility (mole fraction) (in isopropanol, 328.15 K) of 0.376, a solubility (mole fraction) (in isopropanol, 333.15 K) of 0.394 and a solubility (mole fraction) (in methanol, 273.15 K) of 0.29. It also gave a solubility (mole fraction) (in methanol, 278.15 K) of 0.299, a solubility (mole fraction) (in methanol, 283.15 K) of 0.307 and a solubility (mole fraction) (in methanol, 288.15 K) of 0.315. It also gave a solubility (mole fraction) (in methanol, 293.15 K) of 0.324, a solubility (mole fraction) (in methanol, 298.15 K) of 0.335 and a solubility (mole fraction) (in methanol, 303.15 K) of 0.347. The solubility (mole fraction) (in methanol, 308.15 K) was 0.357, the solubility (mole fraction) (in methanol, 313.15 K) was 0.369 and the solubility (mole fraction) (in methanol, 318.15 K) was 0.38. The solubility (mole fraction) (in n-butanol, 278.15 K) was 0.193, the solubility (mole fraction) (in n-butanol, 283.15 K) was 0.204 and the solubility (mole fraction) (in n-butanol, 288.15 K) was 0.22. It also gave a solubility (mole fraction) (in n-butanol, 293.15 K) of 0.232, a solubility (mole fraction) (in n-butanol, 298.15 K) of 0.248 and a solubility (mole fraction) (in n-butanol, 303.15 K) of 0.26. For the same compound, the solubility (mole fraction) (in n-butanol, 308.15 K) was 0.273, the solubility (mole fraction) (in n-butanol, 313.15 K) was 0.29 and the solubility (mole fraction) (in n-butanol, 318.15 K) was 0.304. For the same compound, the solubility (mole fraction) (in n-butanol, 323.15 K) was 0.321, the solubility (mole fraction) (in n-butanol, 328.15 K) was 0.337 and the solubility (mole fraction) (in n-butanol, 333.15 K) was 0.354. It also gave a solubility (mole fraction) (in n-heptanol, 278.15 K) of 0.122, a solubility (mole fraction) (in n-heptanol, 283.15 K) of 0.133 and a solubility (mole fraction) (in n-heptanol, 288.15 K) of 0.143. The solubility (mole fraction) (in n-heptanol, 293.15 K) was 0.158, the solubility (mole fraction) (in n-heptanol, 298.15 K) was 0.17 and the solubility (mole fraction) (in n-heptanol, 303.15 K) was 0.183. The solubility (mole fraction) (in n-heptanol, 308.15 K) was 0.196, the solubility (mole fraction) (in n-heptanol, 313.15 K) was 0.212 and the solubility (mole fraction) (in n-heptanol, 318.15 K) was 0.227. For the same compound, the solubility (mole fraction) (in n-heptanol, 323.15 K) was 0.243, the solubility (mole fraction) (in n-heptanol, 328.15 K) was 0.26 and the solubility (mole fraction) (in n-heptanol, 333.15 K) was 0.278. It also gave a solubility (mole fraction) (in n-hexanol, 278.15 K) of 0.134, a solubility (mole fraction) (in n-hexanol, 283.15 K) of 0.146 and a solubility (mole fraction) (in n-hexanol, 288.15 K) of 0.159. The solubility (mole fraction) (in n-hexanol, 293.15 K) was 0.174, the solubility (mole fraction) (in n-hexanol, 298.15 K) was 0.188 and the solubility (mole fraction) (in n-hexanol, 303.15 K) was 0.202. The solubility (mole fraction) (in n-hexanol, 308.15 K) was 0.218, the solubility (mole fraction) (in n-hexanol, 313.15 K) was 0.23 and the solubility (mole fraction) (in n-hexanol, 318.15 K) was 0.245. For the same compound, the solubility (mole fraction) (in n-hexanol, 323.15 K) was 0.26, the solubility (mole fraction) (in n-hexanol, 328.15 K) was 0.278 and the solubility (mole fraction) (in n-hexanol, 333.15 K) was 0.297. The solubility (mole fraction) (in n-octanol, 278.15 K) was 0.0997, the solubility (mole fraction) (in n-octanol, 283.15 K) was 0.11 and the solubility (mole fraction) (in n-octanol, 288.15 K) was 0.123. It also gave a solubility (mole fraction) (in n-octanol, 293.15 K) of 0.134, a solubility (mole fraction) (in n-octanol, 298.15 K) of 0.147 and a solubility (mole fraction) (in n-octanol, 303.15 K) of 0.161. The solubility (mole fraction) (in n-octanol, 308.15 K) was 0.177, the solubility (mole fraction) (in n-octanol, 313.15 K) was 0.189 and the solubility (mole fraction) (in n-octanol, 318.15 K) was 0.202. The solubility (mole fraction) (in n-octanol, 323.15 K) was 0.218, the solubility (mole fraction) (in n-octanol, 328.15 K) was 0.234 and the solubility (mole fraction) (in n-octanol, 333.15 K) was 0.252. For the same compound, the solubility (mole fraction) (in n-pentanol, 278.15 K) was 0.161, the solubility (mole fraction) (in n-pentanol, 283.15 K) was 0.175 and the solubility (mole fraction) (in n-pentanol, 288.15 K) was 0.186. The solubility (mole fraction) (in n-pentanol, 293.15 K) was 0.199, the solubility (mole fraction) (in n-pentanol, 298.15 K) was 0.212 and the solubility (mole fraction) (in n-pentanol, 303.15 K) was 0.226. For the same compound, the solubility (mole fraction) (in n-pentanol, 308.15 K) was 0.242, the solubility (mole fraction) (in n-pentanol, 313.15 K) was 0.258 and the solubility (mole fraction) (in n-pentanol, 318.15 K) was 0.273. For the same compound, the solubility (mole fraction) (in n-pentanol, 323.15 K) was 0.287, the solubility (mole fraction) (in n-pentanol, 328.15 K) was 0.308 and the solubility (mole fraction) (in n-pentanol, 333.15 K) was 0.323. The solubility (mole fraction) (in n-propanol, 278.15 K) was 0.236, the solubility (mole fraction) (in n-propanol, 283.15 K) was 0.248 and the solubility (mole fraction) (in n-propanol, 288.15 K) was 0.262. The solubility (mole fraction) (in n-propanol, 293.15 K) was 0.271, the solubility (mole fraction) (in n-propanol, 298.15 K) was 0.286 and the solubility (mole fraction) (in n-propanol, 303.15 K) was 0.296. It also gave a solubility (mole fraction) (in n-propanol, 308.15 K) of 0.311, a solubility (mole fraction) (in n-propanol, 313.15 K) of 0.321 and a solubility (mole fraction) (in n-propanol, 318.15 K) of 0.332. The solubility (mole fraction) (in n-propanol, 323.15 K) was 0.347, the solubility (mole fraction) (in n-propanol, 328.15 K) was 0.361 and the solubility (mole fraction) (in n-propanol, 333.15 K) was 0.375.
